Patent US11136304B2, “Salts of a heterocyclic compound and crystalline forms, processes for preparing, therapeutic uses, and pharmaceutical compositions thereof” (Sunovion Pharmaceuticals Inc., priority 2019, dated 2021)
Counter-ions that a name gives are not always drawn.

Assay: Stability study (storage at 60° C. and 60° C. 75% RH, measured by HPLC)
Assay type: physicochemical
Set-up: Stability Study Results (HPLC): unit not given here
Conditions: for stability: stored at 60° C. and 60° C. 75% RH for 1 month, measured at 20 days and 1 month by HPLC
Experimental: Each sample was stored at 60° C. and 60° C. 75% RH for 1 month. Each sample was measured at 20 days and 1 month by HPLC. HPLC conditions are described below.
Column: Waters XSelect CSH C18, 4.6×150 mm, 3.5 μm
MPA: 50 mM HClO4 in water (pH=3)
MPB: MeOH/acetonitrile (9:1)

Compound | Stability Study Results (HPLC) (1 month at 60° C.) | Stability Study Results (HPLC) (1 month at 60° C. 75% RH) | Stability Study Results (HPLC) (20 day at 60° C.) | Stability Study Results (HPLC) (20 days at 60° C. 75% RH) | Stability Study Results (HPLC) (Initial) | stability | stability (phosphate)
CNC[C@@H]1OCCc2cccc(F)c21.O=C(O)/C=C/C(=O)O [Fumarate, (R)-1-(8-fluoroisochroman-1-yl)-N-methylmethanamine fumarate] |  |  |  |  |  | stable | 
O=C(O)/C=C/C(=O)O [Fumaric acid] | 99.60 | 99.64 | 99.54 | 99.67 | 99.48 |  | 
Cl [HCl] | 98.89 | 99.05 | 98.50 | 99.07 | 98.94 |  | 
CNC[C@@H]1OCCc2cccc(F)c21.O=C(O)C(O)C(O)C(=O)O [L-tartrate, (R)-1-(8-fluoroisochroman-1-yl)-N-methylmethanamine L-tartrate] |  |  |  |  |  | stable | 
CNC[C@@H]1OCCc2cccc(F)c21.O=C(O)CC(O)(CC(=O)O)C(=O)O [citrate, (R)-1-(8-fluoroisochroman-1-yl)-N-methylmethanamine citrate] |  |  |  |  |  | stable | 
CNC[C@@H]1OCCc2cccc(F)c21 [freebase (amorphous) of Compound 1, (R)-1-(8-fluoroisochroman-1-yl)-N-methylmethanamine] |  |  |  |  |  | unstable | 
L-Tartaric | 99.14 | 99.23 | 99.13 | 99.23 | 99.10 |  | 

Second part, the compound after the results:

Stability Study Results (HPLC) (1 month at 60° C.) | Stability Study Results (HPLC) (1 month at 60° C. 75% RH) | Stability Study Results (HPLC) (20 day at 60° C.) | Stability Study Results (HPLC) (20 days at 60° C. 75% RH) | Stability Study Results (HPLC) (Initial) | stability | stability (phosphate) | Compound
99.16 | 97.73 | 99.10 | 98.34 | 99.08 |  |  | O=C(O)CC(O)(CC(=O)O)C(=O)O [Citric acid]
99.23 | 99.24 | 99.20 | 99.20 | 99.20 |  |  | O=P(O)(O)O [Compound H3PO4]
 |  |  |  |  | stable |  | CNC[C@@H]1OCCc2cccc(F)c21.Cl [Hydrochloride, (R)-1-(8-fluoroisochroman-1-yl)-N-methylmethanamine hydrochloride]
 |  |  |  |  |  | stable | CNC[C@@H]1OCCc2cccc(F)c21 [Phosphate, (R)-1-(8-fluoroisochroman-1-yl)-N-methylmethanamine phosphate]
